Measured values taken from US20210269451A1, “PYRIDINYL HETEROCYCLYL COMPOUNDS FOR THE TREATMENT OF AUTOIMMUNE DISEASE” (Hoffmann-La Roche Inc., priority 2018, published 2021).

Columns and labels:
hERG channel = target: T1, hERG channel (Homo sapiens, UniProt Q12809); experiment: hERG channel inhibition assay (patch-clamp, CHOhERG cells); format: cell-based; conditions: safety ratio;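 on hERG IC20/TLR7 IC50: ratio above 30 indicates an adequate safety window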;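 on hERG IC20/TLR8 IC50: ratio above 30 indicates an adequate safety window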
T1 construct: expressed in transfected cells; host or cells: CHO (Chinese hamster ovary), CHOhERG
Method: hERG channel inhibition assay:
The hERG K^+ channels were cloned in humans and stably expressed in a CHO (Chinese hamster ovary) cell line. CHOhERG cells were used for patch-clamp (voltage-clamp, whole-cell) experiments. Cells were stimulated by a voltage pattern to activate hERG channels and conduct IKhERG currents (rapid delayed outward rectifier potassium current of the hERG channel). After the cells were stabilized for a few minutes, the amplitude and kinetics of IKhERG were recorded at a stimulation frequency of 0.1 Hz (6 bpm). Thereafter, the test compound was added to the preparation at increasing concentrations. For each concentration, an attempt was made to reach a steady-state effect, usually, this was achieved within 3-10 min at which time the next highest concentration was applied. The amplitude and kinetics of IKhERG are recorded in each concentration of the drug which were compared to the control values (taken as 100%). (references: Redfern W S, Carlsson L, Davis A S, Lynch W G, MacKenzie I, Palethorpe S, Siegl P K, Strang I, Sullivan A T, Wallis R, Camm A J, Hammond T G. 2003; Relationships between preclinical cardiac electrophysiology, clinical QT interval prolongation and torsade de pointes for a broad range of drugs: evidence for a provisional safety margin in drug development. Cardiovasc. Res. 58:32-45, Sanguinetti M C, Tristani-Firouzi M. 2006; hERG potassium channels and cardiac arrhythmia. Nature 440:463-469, Webster R, Leishman D, Walker D. 2002; Towards a drug concentration effect relationship for QT prolongation and torsades de pointes. Curr. Opin. Drug Discov. Devel. 5:116-26).

hTLR9 = target: T2, hTLR9 (Homo sapiens, UniProt Q9NR96); design: host or cells: HEK; conditions: disclosed in US20150105370; read-out: HEK/hTLR9 IC50; cited from earlier work
T2 sequence (Q9NR96 26-1032): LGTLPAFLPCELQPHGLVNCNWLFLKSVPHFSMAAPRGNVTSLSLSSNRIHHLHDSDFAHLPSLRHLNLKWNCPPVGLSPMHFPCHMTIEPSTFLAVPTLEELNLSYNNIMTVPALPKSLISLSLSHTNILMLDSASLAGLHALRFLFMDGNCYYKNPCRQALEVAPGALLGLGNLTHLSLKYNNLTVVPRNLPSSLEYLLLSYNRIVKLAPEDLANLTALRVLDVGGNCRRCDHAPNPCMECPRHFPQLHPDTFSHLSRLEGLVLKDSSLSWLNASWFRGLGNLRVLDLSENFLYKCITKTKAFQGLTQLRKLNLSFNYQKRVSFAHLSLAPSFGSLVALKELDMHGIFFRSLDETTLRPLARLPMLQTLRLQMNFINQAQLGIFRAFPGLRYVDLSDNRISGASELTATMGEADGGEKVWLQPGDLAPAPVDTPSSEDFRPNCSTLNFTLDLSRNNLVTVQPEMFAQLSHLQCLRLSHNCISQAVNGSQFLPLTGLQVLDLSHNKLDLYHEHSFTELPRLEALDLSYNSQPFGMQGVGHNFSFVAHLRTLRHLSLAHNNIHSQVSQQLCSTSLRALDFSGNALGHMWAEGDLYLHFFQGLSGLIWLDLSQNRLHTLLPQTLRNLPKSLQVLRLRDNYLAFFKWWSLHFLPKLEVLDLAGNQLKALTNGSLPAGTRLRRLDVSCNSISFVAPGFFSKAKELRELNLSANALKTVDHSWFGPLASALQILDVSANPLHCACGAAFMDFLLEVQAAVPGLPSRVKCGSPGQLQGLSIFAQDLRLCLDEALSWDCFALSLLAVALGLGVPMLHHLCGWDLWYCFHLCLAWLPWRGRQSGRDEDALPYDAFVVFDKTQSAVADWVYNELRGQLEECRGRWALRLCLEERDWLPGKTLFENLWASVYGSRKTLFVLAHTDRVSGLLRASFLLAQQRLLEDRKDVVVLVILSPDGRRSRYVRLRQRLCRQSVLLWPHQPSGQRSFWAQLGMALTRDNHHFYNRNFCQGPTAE

[1] = Human microsome stability assay; format: in vitro ADME; conditions: 1 μM test compound, 0.5 mg/mL liver microsomal protein, 37° C.
Method: Human microsome stability assay
The human microsomal stability assay is used for early assessment of metabolic stability of a test compound in human liver microsomes.
Human liver microsomes (Cat.NO.: 452117, Corning, USA;Cat.NO.:H2610, Xenotech, USA) were preincubated with test compound for 10 minutes at 37° C. in 100 mM potassium phosphate buffer, pH 7.4. The reactions were initiated by adding NADPH regenerating system. The final incubation mixtures contained 1 μM test compound, 0.5 mg/mL liver microsomal protein, 1 mM MgCl2, 1 mM NADP, 1 unit/mL isocitric dehydrogenase and 6 mM isocitric acid in 100 mM potassium phosphate buffer, pH 7.4. After incubation times of 0, 3, 6, 9, 15 and 30 minutes at 37° C., 300 μL of cold acetonitrile (including internal standard) was added to 100 μL incubation mixture to terminate the reaction. Following precipitation and centrifugation, the amount of compound remaining in the samples were determined by LC-MS/MS. Controls of no NADPH regenerating system at zero and 30 minutes were also prepared and analyzed.

CYP2D6 = target: T3, CYP2D6 (Homo sapiens, UniProt P10635); experiment: CYP inhibition assay in human liver microsome; format: in vitro ADME; conditions: human liver microsomes, probe dextromethorphan, dextromethorphan substrate, percentage inhibition <0: not or weak inhibitor, read-out: CYP 2D6 inhibition %@10 μM
T3 construct: tissue BD-Gentest 452117; host or cells: human liver microsomes
Method: The compounds would be desirable to have minimal DDI liabilities. Therefore, the effects of compounds of formula (I) or (Ia) on CYP2D6 are determined.
This is a high throughput screening assay used for assessment of reversible inhibition of CYP2D6 activity of test compounds in human liver microsome (HLM) in early discovery stage.
10 mM DMSO stock solutions of test compounds were diluted in DMSO to generate 2 mM intermediate stock solution. 250 nL of intermediate stock solution were transferred in duplicate into 3 separate 384 well microtitre plates (assay-ready plates). A mixture of HLM and each substrate was made up. 45 μL of HLM substrate mix was then transferred to each well of an assay ready plate and mixed. The negative (solvent) and positive control (standard inhibitor for CYP 2D6) were included in each assay ready plate. The assay ready plate was warmed to 37° C. in an incubator over 10 minutes. 5 μL pre-warmed NADPH regenerating system was added to each incubation well to start the reaction. Final incubation volume was 50 μL. The assay plate then was placed back in the 37° C. incubator. After 10 minutes incubation, incubates were quenched by addition of 50 μL 100% acetonitrile containing internal standards (20 ng/mL D3-Dextrorphan). The supernatants were collected for RapidFire/MS/MS analysis.
RapidFire online solid phase extraction/sample injection system (Agilent) coupled with API4000 triple quadrupole mass spectrometer (AB Sciex) were used for sample analysis. The mobile phase composed of acetonitrile and water supplemented with 0.1% formic acid. A C4 solid phase extraction cartridge is used for sample separation. MS detection is achieved in positive ion MRM mode.
Data analysis Peak areas for substrate, metabolite and internal standard are determined using the RapidFire integrator software (version 3.6.12009.12296). Peak area ratios (PAR) of metabolite and internal standard (stable-labelled metabolite) are then calculated. The measurement window for each experiment is then defined:
PAR (0% activity), average PAR for all incubations containing concentrated inhibitor; Par (100% activity), average PAR for all incubations containing no inhibitor (DMSO controls);
% Activity (test inhibitor)=
=[PAR(test inhibitor)-PAR(0% activity)]/[PAR(100% activity)-PAR(0% activity)];
% Inhibition (test inhibitor)=100-% Activity (test inhibitor).

T1 sequence (Q12809 whole entry): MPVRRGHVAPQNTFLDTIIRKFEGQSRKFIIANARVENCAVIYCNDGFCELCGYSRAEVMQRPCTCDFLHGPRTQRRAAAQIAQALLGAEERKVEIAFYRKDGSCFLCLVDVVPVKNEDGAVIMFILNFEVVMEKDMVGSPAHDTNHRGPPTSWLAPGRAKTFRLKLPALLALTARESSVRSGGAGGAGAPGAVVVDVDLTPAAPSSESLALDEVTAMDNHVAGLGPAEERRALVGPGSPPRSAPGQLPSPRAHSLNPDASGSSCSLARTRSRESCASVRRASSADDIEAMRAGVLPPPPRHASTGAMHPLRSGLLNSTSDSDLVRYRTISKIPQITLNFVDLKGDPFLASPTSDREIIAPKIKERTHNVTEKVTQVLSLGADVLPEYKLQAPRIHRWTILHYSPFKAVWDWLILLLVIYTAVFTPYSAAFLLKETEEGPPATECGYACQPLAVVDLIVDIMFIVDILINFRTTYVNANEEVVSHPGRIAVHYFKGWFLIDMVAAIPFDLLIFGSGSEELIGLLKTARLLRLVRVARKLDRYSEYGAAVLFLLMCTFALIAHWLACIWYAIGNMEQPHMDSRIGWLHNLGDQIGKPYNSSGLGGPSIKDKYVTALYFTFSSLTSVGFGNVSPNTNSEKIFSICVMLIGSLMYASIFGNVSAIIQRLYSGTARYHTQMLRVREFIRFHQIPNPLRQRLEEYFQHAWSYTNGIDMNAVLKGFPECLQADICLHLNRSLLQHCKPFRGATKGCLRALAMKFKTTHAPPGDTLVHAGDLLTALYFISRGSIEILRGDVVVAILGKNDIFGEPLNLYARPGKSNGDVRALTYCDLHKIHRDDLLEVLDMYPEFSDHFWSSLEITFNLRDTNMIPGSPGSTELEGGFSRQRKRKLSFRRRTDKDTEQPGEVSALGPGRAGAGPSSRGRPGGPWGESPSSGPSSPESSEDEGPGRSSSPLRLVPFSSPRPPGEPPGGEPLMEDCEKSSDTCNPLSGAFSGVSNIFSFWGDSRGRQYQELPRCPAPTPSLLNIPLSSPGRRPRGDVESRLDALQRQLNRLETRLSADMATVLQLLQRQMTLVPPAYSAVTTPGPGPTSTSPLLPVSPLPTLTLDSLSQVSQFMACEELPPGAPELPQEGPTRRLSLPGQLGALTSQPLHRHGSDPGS
T3 sequence (P10635 whole entry): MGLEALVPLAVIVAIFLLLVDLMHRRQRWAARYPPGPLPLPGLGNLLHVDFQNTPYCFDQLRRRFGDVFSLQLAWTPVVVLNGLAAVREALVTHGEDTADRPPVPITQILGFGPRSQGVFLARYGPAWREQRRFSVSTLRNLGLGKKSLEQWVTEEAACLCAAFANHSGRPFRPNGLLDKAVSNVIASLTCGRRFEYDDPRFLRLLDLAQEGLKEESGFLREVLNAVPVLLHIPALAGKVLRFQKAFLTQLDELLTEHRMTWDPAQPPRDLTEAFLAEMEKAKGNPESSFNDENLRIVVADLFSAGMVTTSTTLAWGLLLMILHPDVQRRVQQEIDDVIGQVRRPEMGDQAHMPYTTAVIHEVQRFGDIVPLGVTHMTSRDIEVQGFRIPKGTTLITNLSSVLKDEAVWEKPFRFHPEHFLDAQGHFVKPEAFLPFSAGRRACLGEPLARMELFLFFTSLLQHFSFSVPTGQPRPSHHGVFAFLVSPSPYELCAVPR

Row | SMILES | hERG IC20/TLR7 IC50 (hERG channel) | hERG IC20/TLR9 IC50 (hERG channel) | IC50 (hTLR9) [µM] | Clearance of Human microsome [1] [mL/min/kg] | further results
1 | C[C@@H]1CN(c2ccc(C#N)c3ncccc23)C[C@H](CN2CCN(c3ccccc3)CC2)O1 [ER-887258, reference compound] | 8.1 | 0.3 | > 2 |  | 
2 | C[C@@H]1CN(c2ccc(C#N)c3ncccc23)C[C@H](CN2CCN(c3ccccn3)CC2)O1 [ER-888285, reference compound] | 8.4 | 0.5 | > 2 |  | 
3 | C[C@@H]1CN(c2ccc(C#N)c3ncccc23)C[C@H](CN2CCN(c3ccncc3)CC2)O1 [ER-888286, reference compound] | 0.3 | 0.2 | > 2 |  | 
4 | C[C@@H]1CN(c2ccc(C#N)c3ncccc23)C[C@H](CN2CC(NS(=O)(=O)c3ccc(F)cc3)C2)O1 [ER-894155] |  |  | > 10 |  | 
5 | Cc1nn(C)cc1S(=O)(=O)NC1CCN(C[C@H]2CN(c3ccc(C#N)c4ncccc34)C[C@@H](C)O2)CC1 [ER-894160] |  |  | > 10 |  | 
6 | C[C@@H]1CN(c2ccc(C#N)c3ncccc23)C[C@H](CN2CC[C@@H](NC(=O)c3ccccc3)C2)O1 [ER-894544] |  |  | > 6.2 |  | 
7 | Cc1cc(N2CC[C@H](NC[C@H]3CN(c4ccc(C#N)c5ncccc45)C[C@@H](C)O3)[C@@H](O)C2)cc(CO)n1 [Example 26] |  |  |  | 7.72 | 
8 | Cc1cc(N2CC[C@@H](O)[C@H](NC[C@H]3CN(c4ccc(C#N)c5ncccc45)C[C@@H](C)O3)C2)cc(CO)n1 [Example 27] |  |  |  | 7.67 | 
9 | Cc1cc(N2C[C@@H](O)[C@H](NC[C@H]3CN(c4ccc(C#N)c5ncccc45)C[C@@H](C)O3)C2)cc(CO)n1 [Example 31] |  |  |  | 7.61 | 
10 | Cc1cc(N2CCN(C[C@H]3CN(c4ccc(C#N)n5nccc45)C[C@@H](C)O3)C(Cc3ccccc3)C2)cc(C)n1 (some centres unmarked) [Example 39] |  |  |  |  | inhibition at 10 min, 10 μM (CYP2D6): 7.5%
11 | COc1ccc(N2CCN(C[C@H]3CN(c4ccc(C#N)c5ncccc45)C[C@@H](C)O3)CC2)cc1 [Example R1, 5-[(2S,6R)-2-[[4-(4-methoxyphenyl)piperazin-1-yl]methyl]-6-methyl-morpholin-4-yl]quinoline-8-carbonitrile, reference compound] | 9.3 | 0.1 |  | 10.84 | hERG IC20/TLR8 IC50 (hERG channel): 6.2
12 | C[C@@H]1CN(c2ccc(C#N)c3ncccc23)C[C@H](CN2CCN(c3ccc(Cl)cc3)CC2)O1 [Example R2, 5-[(2S,6R)-2-[[4-(4-chlorophenyl)piperazin-1-yl]methyl]-6-methyl-morpholin-4-yl]quinoline-8-carbonitrile, reference compound] | 1.3 | 0.0 |  |  | hERG IC20/TLR8 IC50 (hERG channel): 0.8
